Assay results taken from patent US20090156648A1, “Preparations containing pyridoxine and alpha-hydroxyisocaproic acid (HICA)” (IOVATE T. & P. INC., priority 2007, published 2009).

Test: hygroscopicity and storage stability of the salt as described
Format: physicochemical
Settings: crystalline powder

- hygroscopic nature: non-hygroscopic
- stability in storage: stable in storage
Substance: pyridoxine α-hydroxyisocaproate
